Source: PubChem BioAssay AID330 (DTP/NCI, 2004)
Where “and” joins values, the source holds several entries; their conditions need not be identical. Equal entries are not always repeated. Toxic doses and inconclusive results are not listed. How the source made its calls: active means survival T/C of 150% or more; inactive means T/C below 125% in these data.

Test system: P388 leukemia ip, CD2F1 mice, survival T/C
Test: NCI In Vivo Anticancer Drug Screen. Data for tumor model P388 Leukemia (intraperitoneal) in CD2F1 (CDF1) mice
Conditions: endpoint: median survival time, higher = longer survival
Outline: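 Mice carrying the transplanted tumor received test compound or vehicle. Survival was recorded in each group, and the value is the treated-group measurement divided by that of the vehicle-treated control group.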

[1] = dose: 100.0 mg/kg/injection, schedule: Q04DX003 (ip), vehicle: Klucel (hydroxypropylcellulose) (HPC)
[2] = dose: 50.0 mg/kg/injection, schedule: Q01DX005 (ip), vehicle: saline with Tween-80
[3] = dose: 100.0 mg/kg/injection, schedule: Q01DX005 (ip), vehicle: saline with Tween-80
[4] = dose: 200.0 mg/kg/injection, schedule: Q01DX005 (ip), vehicle: saline with Tween-80
[5] = dose: 50.0 mg/kg/injection, schedule: Q01DX009 (ip), vehicle: Klucel (hydroxypropylcellulose) (HPC)
[6] = dose: 100.0 mg/kg/injection, schedule: Q01DX009 (ip), vehicle: Klucel (hydroxypropylcellulose) (HPC)
[7] = dose: 50.0 mg/kg/injection, schedule: Q01DX009 (ip), vehicle: saline with Tween-80
[8] = dose: 100.0 mg/kg/injection, schedule: Q04DX003 (ip), vehicle: saline with Tween-80
[9] = dose: 200.0 mg/kg/injection, schedule: Q04DX003 (ip), vehicle: saline with Tween-80
[10] = dose: 400.0 mg/kg/injection, schedule: Q04DX003 (ip), vehicle: saline with Tween-80

Measured: T/C

C1CCC2(CC1)NN=C1CCCCC12 (configuration not stated)
inactive: dose: 12.5 mg/kg/injection, schedule: Q01DX009 (ip), vehicle: other 101 % of control | dose: 25.0 mg/kg/injection, schedule: Q01DX009 (ip), vehicle: other 110 % of control | dose: 50.0 mg/kg/injection, schedule: Q01DX009 (ip), vehicle: other 104 % of control | dose: 100.0 mg/kg/injection, schedule: Q01DX009 (ip), vehicle: other 106 % of control | dose: 200.0 mg/kg/injection, schedule: Q01DX009 (ip), vehicle: other 116 % of control

Cn1ccc2c1CC(=O)NC2=O
inactive: dose: 3.12 mg/kg/injection, schedule: Q04DX003 (ip), vehicle: Klucel (hydroxypropylcellulose) (HPC) 100 % of control | dose: 6.25 mg/kg/injection, schedule: Q04DX003 (ip), vehicle: Klucel (hydroxypropylcellulose) (HPC) 108 % of control | dose: 12.5 mg/kg/injection, schedule: Q04DX003 (ip), vehicle: Klucel (hydroxypropylcellulose) (HPC) 114 % of control | [1] 106 % of control

CCN(CC)CCOc1ccc(C2=C(c3ccc(OC)cc3)Cc3cc(OC)ccc32)cc1
inactive: dose: 6.25 mg/kg/injection, schedule: Q01DX005 (ip), vehicle: saline with Tween-80 101 % of control | dose: 12.5 mg/kg/injection, schedule: Q01DX005 (ip), vehicle: saline with Tween-80 101 % of control | dose: 25.0 mg/kg/injection, schedule: Q01DX005 (ip), vehicle: saline with Tween-80 105 % of control | [2] 106 % of control | [3] 106 % of control | [4] 102 % of control

O=C(Nc1ccccc1Cl)OCC(CCl)(CCl)CCl
inactive: [5] 100 % of control | [6] 106 % of control | dose: 200.0 mg/kg/injection, schedule: Q01DX009 (ip), vehicle: Klucel (hydroxypropylcellulose) (HPC) 95 % of control

NC(N)=NC(=O)c1ccccc1
inactive: dose: 50.0 mg/kg/injection, schedule: Q01DX005 (ip), vehicle: saline 100 % of control | dose: 100.0 mg/kg/injection, schedule: Q01DX005 (ip), vehicle: saline 100 % of control | dose: 200.0 mg/kg/injection, schedule: Q01DX005 (ip), vehicle: saline 100 % of control

N#Cc1ccc(=O)[nH]c1O
inactive: [7] 99 % of control | dose: 100.0 mg/kg/injection, schedule: Q01DX009 (ip), vehicle: saline with Tween-80 100 % of control

CN1CCc2nc[nH]c2C1
inactive: dose: 100.0 mg/kg/injection, schedule: Q04DX002 (ip), vehicle: saline 97 % of control | dose: 200.0 mg/kg/injection, schedule: Q04DX002 (ip), vehicle: saline 101 % of control | dose: 400.0 mg/kg/injection, schedule: Q04DX002 (ip), vehicle: saline 99 % of control

COc1ccc2[nH]c(C(=O)N(C)C)cc2c1
inactive: [2] 100 % of control | [3] 104 % of control | [4] 101 % of control

COSc1ccc([N+](=O)[O-])cc1
inactive: [1] 108 % of control | dose: 200.0 mg/kg/injection, schedule: Q04DX003 (ip), vehicle: Klucel (hydroxypropylcellulose) (HPC) 102 % of control | dose: 400.0 mg/kg/injection, schedule: Q04DX003 (ip), vehicle: Klucel (hydroxypropylcellulose) (HPC) 99 % of control

Cc1ccc(S(=O)(=O)OC2C(COCC(=O)O)OC3OC(C)(C)OC32)cc1 (configuration not stated)
inactive: [8] 95 % of control | [9] 95 % of control | [10] 90 % of control

OC(CNc1ccc(CSc2ccccc2)cc1)c1ccccc1 (configuration not stated)
inactive: dose: 50.0 mg/kg/injection, schedule: Q01DX009 (ip), vehicle: saline + Tween-80 + alcohol 101 % of control and 104 % of control | dose: 100.0 mg/kg/injection, schedule: Q01DX009 (ip), vehicle: saline + Tween-80 + alcohol 99 % of control | dose: 200.0 mg/kg/injection, schedule: Q01DX009 (ip), vehicle: saline + Tween-80 + alcohol 99 % of control and 102 % of control | dose: 400.0 mg/kg/injection, schedule: Q01DX009 (ip), vehicle: saline + Tween-80 + alcohol 104 % of control and 90 % of control

COC(=O)c1nnn(-c2ccc(S(N)(=O)=O)cc2)c1C(=O)c1ccc(OC)cc1
inactive: dose: 60.0 mg/kg/injection, schedule: Q01DX005 (ip), vehicle: saline with Tween-80 100 % of control | dose: 120.0 mg/kg/injection, schedule: Q01DX005 (ip), vehicle: saline with Tween-80 99 % of control | dose: 240.0 mg/kg/injection, schedule: Q01DX005 (ip), vehicle: saline with Tween-80 94 % of control

ON(C=S)c1ccccc1
inactive: [2] 102 % of control | [3] 105 % of control | [4] 97 % of control

CCOC(=O)/C=C/c1ccc2c(c1)OCO2
inactive: [8] 100 % of control | [9] 90 % of control | [10] 100 % of control

CCOC(=O)c1cnc2cc3c(cc2c1Nc1cccc(C)c1C)OCO3
inactive: dose: 60.0 mg/kg/injection, schedule: Q01DX005 (ip), vehicle: Klucel (hydroxypropylcellulose) (HPC) 101 % of control | dose: 120.0 mg/kg/injection, schedule: Q01DX005 (ip), vehicle: Klucel (hydroxypropylcellulose) (HPC) 101 % of control | dose: 240.0 mg/kg/injection, schedule: Q01DX005 (ip), vehicle: Klucel (hydroxypropylcellulose) (HPC) 95 % of control

C=CCNc1ccc(C)cc1
inactive: dose: 33.0 mg/kg/injection, schedule: Q01DX009 (ip), vehicle: saline with Tween-80 116 % of control | [7] 116 % of control | [8] 100 % of control | [9] 122 % of control | [10] 90 % of control

CCOC(=O)C1(c2ccccc2)CCCN(C)CC1 (configuration not stated)
inactive: dose: 25.0 mg/kg/injection, schedule: Q04DX003 (ip), vehicle: saline 107 % of control | dose: 50.0 mg/kg/injection, schedule: Q04DX003 (ip), vehicle: saline 107 % of control | dose: 100.0 mg/kg/injection, schedule: Q04DX003 (ip), vehicle: saline 98 % of control

CN(/C(=N/C(=S)NCc1ccccc1)SCc1ccccc1)c1ccccc1
inactive: [2] 94 % of control | [3] 86 % of control

CN(C)CCCNc1ccc2ccc3c(NCCCN(C)C)ccc4ccc1c2c43
inactive: dose: 12.5 mg/kg/injection, schedule: Q01DX009 (ip), vehicle: Klucel (hydroxypropylcellulose) (HPC) 99 % of control | dose: 25.0 mg/kg/injection, schedule: Q01DX009 (ip), vehicle: Klucel (hydroxypropylcellulose) (HPC) 102 % of control | [5] 99 % of control and 112 % of control | [6] 103 % of control

NC(CCCCNc1ccc([N+](=O)[O-])cc1[N+](=O)[O-])C(=O)NC(Cc1ccc(O)cc1)C(=O)O (configuration not stated)
inactive: dose: 50.0 mg/kg/injection, schedule: Q01DX005 (ip), vehicle: saline + Tween-80 + alcohol 101 % of control | dose: 100.0 mg/kg/injection, schedule: Q01DX005 (ip), vehicle: saline + Tween-80 + alcohol 101 % of control | dose: 200.0 mg/kg/injection, schedule: Q01DX005 (ip), vehicle: saline + Tween-80 + alcohol 103 % of control

CC(=O)Nc1c(C)ncn(-c2ccccc2)c1=O
inactive: dose: 60.0 mg/kg/injection, schedule: Q01DX005 (ip), vehicle: saline 95 % of control | dose: 120.0 mg/kg/injection, schedule: Q01DX005 (ip), vehicle: saline 100 % of control | dose: 240.0 mg/kg/injection, schedule: Q01DX005 (ip), vehicle: saline 101 % of control

O=C(O)C1=C(C(=O)O)CCC1
inactive: dose: 25.0 mg/kg/injection, schedule: Q01DX009 (ip), vehicle: distilled water + Tween-80 100 % of control | dose: 50.0 mg/kg/injection, schedule: Q01DX009 (ip), vehicle: distilled water + Tween-80 91 % of control | dose: 100.0 mg/kg/injection, schedule: Q01DX009 (ip), vehicle: distilled water + Tween-80 89 % of control

CN1CCCCC1CC(O)c1ccccc1 (configuration not stated)
inactive: dose: 12.5 mg/kg/injection, schedule: Q01DX005 (ip), vehicle: Klucel (hydroxypropylcellulose) (HPC) 103 % of control | dose: 25.0 mg/kg/injection, schedule: Q01DX005 (ip), vehicle: Klucel (hydroxypropylcellulose) (HPC) 105 % of control | dose: 50.0 mg/kg/injection, schedule: Q01DX005 (ip), vehicle: Klucel (hydroxypropylcellulose) (HPC) 100 % of control
